Test results taken from PubChem BioAssay (NCI).
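Cultured in 96-well plates, cells were exposed to test compound for 48 hours across five concentrations. GI50 = concentration required for 50% inhibition of growth. TGI: total growth inhibition.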

Tests used:
Test in all cases: NCI anticancer screen, dose series, 48 h
786-0 renal = test system: 786-0 renal
A498 renal = test system: A498 renal
A549 NSCLC = test system: A549 NSCLC
ACHN renal = test system: ACHN renal
BT-549 breast = test system: BT-549 breast
CAKI-1 renal = test system: CAKI-1 renal
CCRF-CEM leukemia = test system: CCRF-CEM leukemia
COLO 205 colon = test system: COLO 205 colon
DU-145 prostate = test system: DU-145 prostate
EKVX NSCLC = test system: EKVX NSCLC
HCC-2998 colon = test system: HCC-2998 colon
HCT-116 colon = test system: HCT-116 colon
HCT-15 colon = test system: HCT-15 colon
HL-60(TB) leukemia = test system: HL-60(TB) leukemia
HOP-62 NSCLC = test system: HOP-62 NSCLC
HOP-92 NSCLC = test system: HOP-92 NSCLC
HS 578T breast = test system: HS 578T breast
HT29 colon = test system: HT29 colon
IGROV1 ovarian = test system: IGROV1 ovarian
K-562 leukemia = test system: K-562 leukemia
KM12 colon = test system: KM12 colon
LOX IMVI melanoma = test system: LOX IMVI melanoma
M14 melanoma = test system: M14 melanoma
MALME-3M melanoma = test system: MALME-3M melanoma
MCF7 breast = test system: MCF7 breast
MDA-MB-231 breast = test system: MDA-MB-231 breast
MDA-MB-435 = test system: MDA-MB-435
MOLT-4 leukemia = test system: MOLT-4 leukemia
NCI-H226 lung = test system: NCI-H226 lung
NCI-H23 lung = test system: NCI-H23 lung
NCI-H460 lung = test system: NCI-H460 lung
NCI-H522 lung = test system: NCI-H522 lung
NCI/ADR-RES ovarian = test system: NCI/ADR-RES ovarian
OVCAR-4 ovarian = test system: OVCAR-4 ovarian
OVCAR-5 ovarian = test system: OVCAR-5 ovarian
OVCAR-8 ovarian = test system: OVCAR-8 ovarian
PC-3 prostate = test system: PC-3 prostate
RPMI-8226 leukemia = test system: RPMI-8226 leukemia
RXF 393 renal = test system: RXF 393 renal
SF-268 CNS = test system: SF-268 CNS
SF-295 CNS = test system: SF-295 CNS
SF-539 CNS = test system: SF-539 CNS
SK-MEL-2 melanoma = test system: SK-MEL-2 melanoma
SK-MEL-28 melanoma = test system: SK-MEL-28 melanoma
SK-OV-3 ovarian = test system: SK-OV-3 ovarian
SN12C renal = test system: SN12C renal
SNB-19 CNS = test system: SNB-19 CNS
SNB-75 CNS = test system: SNB-75 CNS
SR leukemia = test system: SR leukemia
SW-620 colon = test system: SW-620 colon
T-47D breast = test system: T-47D breast
TK-10 renal = test system: TK-10 renal
U251 CNS = test system: U251 CNS
UACC-257 melanoma = test system: UACC-257 melanoma
UACC-62 melanoma = test system: UACC-62 melanoma
UO-31 renal = test system: UO-31 renal

**Q.** With `CS(=O)(=O)Nc1cc(-c2ccc3ncc(C#N)c(NCc4ccccc4O)c3c2)cnc1Cl` as the compound, how does the GI50 (786-0 renal) read?
**A.** 693 nM

**Q.** And the TGI (786-0 renal)?
**A.** > 100000 nM

**Q.** And the GI50 (A498 renal)?
**A.** 227 nM

**Q.** What about the TGI (A498 renal) of the same compound?
**A.** 835 nM

**Q.** And the GI50 (A549 NSCLC)?
**A.** 1960 nM

**Q.** What about the TGI (A549 NSCLC) of the same compound?
**A.** 13000 nM

**Q.** What about the GI50 (ACHN renal) of the same compound?
**A.** 1700 nM

**Q.** What about the TGI (ACHN renal) of the same compound?
**A.** > 63000 nM

**Q.** What about the GI50 (BT-549 breast) of the same compound?
**A.** 167 nM

**Q.** What about the TGI (BT-549 breast) of the same compound?
**A.** 1340 nM

**Q.** What about the GI50 (CAKI-1 renal) of the same compound?
**A.** 325 nM

**Q.** What about the TGI (CAKI-1 renal) of the same compound?
**A.** 2910 nM

**Q.** And the GI50 (CCRF-CEM leukemia)?
**A.** 243 nM

**Q.** What about the TGI (CCRF-CEM leukemia) of the same compound?
**A.** > 100000 nM

**Q.** And the GI50 (COLO 205 colon)?
**A.** 674 nM

**Q.** What about the TGI (COLO 205 colon) of the same compound?
**A.** 2260 nM

**Q.** What about the GI50 (DU-145 prostate) of the same compound?
**A.** 613 nM

**Q.** And the TGI (DU-145 prostate)?
**A.** 12400 nM

**Q.** And the GI50 (EKVX NSCLC)?
**A.** 1200 nM

**Q.** And the TGI (EKVX NSCLC)?
**A.** 7100 nM

**Q.** What about the GI50 (HCC-2998 colon) of the same compound?
**A.** 745 nM

**Q.** And the TGI (HCC-2998 colon)?
**A.** 6510 nM

**Q.** What about the GI50 (HCT-116 colon) of the same compound?
**A.** 408 nM

**Q.** What about the TGI (HCT-116 colon) of the same compound?
**A.** 2960 nM

**Q.** And the GI50 (HCT-15 colon)?
**A.** 516 nM

**Q.** What about the TGI (HCT-15 colon) of the same compound?
**A.** 12000 nM

**Q.** And the GI50 (HL-60(TB) leukemia)?
**A.** 808 nM

**Q.** What about the TGI (HL-60(TB) leukemia) of the same compound?
**A.** 21700 nM

**Q.** And the GI50 (HOP-62 NSCLC)?
**A.** 480 nM

**Q.** And the TGI (HOP-62 NSCLC)?
**A.** 13300 nM

**Q.** And the GI50 (HOP-92 NSCLC)?
**A.** 117 nM

**Q.** And the TGI (HOP-92 NSCLC)?
**A.** 725 nM

**Q.** What about the GI50 (HS 578T breast) of the same compound?
**A.** 118 nM

**Q.** And the TGI (HS 578T breast)?
**A.** 612 nM

**Q.** And the GI50 (HT29 colon)?
**A.** 1090 nM

**Q.** And the TGI (HT29 colon)?
**A.** 8630 nM

**Q.** What about the GI50 (IGROV1 ovarian) of the same compound?
**A.** 229 nM

**Q.** And the TGI (IGROV1 ovarian)?
**A.** 1290 nM

**Q.** And the GI50 (K-562 leukemia)?
**A.** 465 nM

**Q.** What about the TGI (K-562 leukemia) of the same compound?
**A.** > 100000 nM

**Q.** What about the GI50 (KM12 colon) of the same compound?
**A.** 652 nM

**Q.** And the TGI (KM12 colon)?
**A.** 7060 nM

**Q.** What about the GI50 (LOX IMVI melanoma) of the same compound?
**A.** 397 nM

**Q.** What about the TGI (LOX IMVI melanoma) of the same compound?
**A.** 2180 nM

**Q.** And the GI50 (M14 melanoma)?
**A.** 532 nM

**Q.** And the TGI (M14 melanoma)?
**A.** 10900 nM

**Q.** What about the GI50 (MALME-3M melanoma) of the same compound?
**A.** 184 nM

**Q.** What about the TGI (MALME-3M melanoma) of the same compound?
**A.** 1150 nM

**Q.** And the GI50 (MCF7 breast)?
**A.** 288 nM

**Q.** And the TGI (MCF7 breast)?
**A.** 9270 nM

**Q.** What about the GI50 (MDA-MB-231 breast) of the same compound?
**A.** 585 nM

**Q.** And the TGI (MDA-MB-231 breast)?
**A.** 4040 nM

**Q.** What about the GI50 (MDA-MB-435) of the same compound?
**A.** 539 nM

**Q.** What about the TGI (MDA-MB-435) of the same compound?
**A.** 9850 nM

**Q.** What about the GI50 (MOLT-4 leukemia) of the same compound?
**A.** 418 nM

**Q.** What about the TGI (MOLT-4 leukemia) of the same compound?
**A.** > 100000 nM

**Q.** What about the GI50 (NCI-H226 lung) of the same compound?
**A.** 908 nM

**Q.** And the TGI (NCI-H226 lung)?
**A.** 32200 nM

**Q.** What about the GI50 (NCI-H23 lung) of the same compound?
**A.** 600 nM

**Q.** And the TGI (NCI-H23 lung)?
**A.** 15800 nM

**Q.** And the GI50 (NCI-H460 lung)?
**A.** 1420 nM

**Q.** What about the TGI (NCI-H460 lung) of the same compound?
**A.** 18400 nM

**Q.** And the GI50 (NCI-H522 lung)?
**A.** 460 nM

**Q.** What about the TGI (NCI-H522 lung) of the same compound?
**A.** 6260 nM

**Q.** And the GI50 (NCI/ADR-RES ovarian)?
**A.** 3090 nM

**Q.** What about the TGI (NCI/ADR-RES ovarian) of the same compound?
**A.** > 100000 nM

**Q.** What about the GI50 (OVCAR-4 ovarian) of the same compound?
**A.** 468 nM

**Q.** And the TGI (OVCAR-4 ovarian)?
**A.** 6410 nM

**Q.** What about the GI50 (OVCAR-5 ovarian) of the same compound?
**A.** 1330 nM

**Q.** What about the TGI (OVCAR-5 ovarian) of the same compound?
**A.** 19000 nM

**Q.** What about the GI50 (OVCAR-8 ovarian) of the same compound?
**A.** 718 nM

**Q.** And the TGI (OVCAR-8 ovarian)?
**A.** 16800 nM

**Q.** What about the GI50 (PC-3 prostate) of the same compound?
**A.** 531 nM

**Q.** And the TGI (PC-3 prostate)?
**A.** 13200 nM

**Q.** And the GI50 (RPMI-8226 leukemia)?
**A.** 609 nM

**Q.** What about the TGI (RPMI-8226 leukemia) of the same compound?
**A.** 3390 nM

**Q.** And the GI50 (RXF 393 renal)?
**A.** 212 nM

**Q.** And the TGI (RXF 393 renal)?
**A.** 1280 nM

**Q.** And the GI50 (SF-268 CNS)?
**A.** 248 nM

**Q.** What about the TGI (SF-268 CNS) of the same compound?
**A.** 3120 nM

**Q.** What about the GI50 (SF-295 CNS) of the same compound?
**A.** 681 nM

**Q.** And the TGI (SF-295 CNS)?
**A.** 5190 nM

**Q.** What about the GI50 (SF-539 CNS) of the same compound?
**A.** 400 nM

**Q.** What about the TGI (SF-539 CNS) of the same compound?
**A.** 3200 nM

**Q.** What about the GI50 (SK-MEL-2 melanoma) of the same compound?
**A.** 175 nM

**Q.** What about the TGI (SK-MEL-2 melanoma) of the same compound?
**A.** 554 nM

**Q.** And the GI50 (SK-MEL-28 melanoma)?
**A.** 387 nM

**Q.** What about the TGI (SK-MEL-28 melanoma) of the same compound?
**A.** 7380 nM

**Q.** What about the GI50 (SK-OV-3 ovarian) of the same compound?
**A.** 612 nM

**Q.** And the TGI (SK-OV-3 ovarian)?
**A.** 3680 nM

**Q.** What about the GI50 (SN12C renal) of the same compound?
**A.** 450 nM

**Q.** And the TGI (SN12C renal)?
**A.** > 65000 nM

**Q.** And the GI50 (SNB-19 CNS)?
**A.** 507 nM

**Q.** And the TGI (SNB-19 CNS)?
**A.** 15100 nM

**Q.** What about the GI50 (SNB-75 CNS) of the same compound?
**A.** < 37.8 nM

**Q.** What about the TGI (SNB-75 CNS) of the same compound?
**A.** 743 nM

**Q.** What about the GI50 (SR leukemia) of the same compound?
**A.** 231 nM

**Q.** What about the TGI (SR leukemia) of the same compound?
**A.** > 100000 nM

**Q.** What about the GI50 (SW-620 colon) of the same compound?
**A.** 470 nM

**Q.** What about the TGI (SW-620 colon) of the same compound?
**A.** 6960 nM

**Q.** And the GI50 (T-47D breast)?
**A.** 122 nM

**Q.** And the TGI (T-47D breast)?
**A.** 4970 nM

**Q.** And the GI50 (TK-10 renal)?
**A.** 375 nM

**Q.** What about the TGI (TK-10 renal) of the same compound?
**A.** 3420 nM

**Q.** What about the GI50 (U251 CNS) of the same compound?
**A.** 300 nM

**Q.** And the GI50 (UACC-257 melanoma)?
**A.** 736 nM

**Q.** And the TGI (UACC-257 melanoma)?
**A.** 7060 nM

**Q.** And the GI50 (UACC-62 melanoma)?
**A.** 282 nM

**Q.** And the TGI (UACC-62 melanoma)?
**A.** 2580 nM

**Q.** And the GI50 (UO-31 renal)?
**A.** 417 nM

**Q.** And the TGI (UO-31 renal)?
**A.** > 25900 nM
